Experimental data as given in the SangsterLogP compilation.

Experiment: method code SF-AS, from DOI: 10.2175/106143002x139965, PMID: 12150246

Row | Structure (SMILES) | logP
1 | Nc1ccc([N+](=O)[O-])cc1Cl | 2.14
2 | Fc1c(Cl)cccc1Cl | 3.38
3 | Nc1ccc(F)cc1Cl | 2.04
4 | Fc1ccc(Cl)cc1Cl | 3.38
5 | Clc1ccc(I)cc1 | 4.12
6 | O=[N+]([O-])c1ccc(Cl)c([N+](=O)[O-])c1 | 2.18
7 | Nc1ccc(Cl)c(Cl)c1 | 2.55
8 | Clc1cccc(Cl)c1Br | 4.17
9 | Clc1cccc(I)c1Cl | 4.93
10 | Clc1cccc(Br)c1Cl | 4.61
11 | N#Cc1ccc(Cl)cc1 | 2.24
12 | O=[N+]([O-])c1cc(Cl)ccc1O | 2.48
13 | Nc1c(Cl)cc([N+](=O)[O-])cc1Cl | 2.84
14 | Nc1ccc(Cl)cc1[N+](=O)[O-] | 2.56
15 | Nc1cc([N+](=O)[O-])ccc1Cl | 2.2
